One data set concerns C4-2 and LNCaP. As to the kind of experiment: Morphological examination, AR-positive PCa cell lines. The data set is classed as cell-based. Here is the method:
Cells were seeded in 6 wells plate at a density of 150,000-200,000 cells/well and were incubated overnight. […] Morphological changes were monitored using a DMi8 inverted microscope (Leica, Germany) and images were captured with a Leica MC170 HD camera.

The test system of another data set is Bax, Bcl-2. As to the kind of experiment: Western blot of apoptosis-related proteins in PC3 and DU145. Particulars: PC3 and DU145, 48 hours of treatment.
The test system of data set [1] is PC3 and DU145. As to the kind of experiment: Alamar Blue cell viability, AR-negative PCa cell lines (stated for both). Particulars: Homo sapiens, DU-145, read-out: IC50 against PC3 and DU145 cell lines.
Data set [2] has as its system DU145. As to the kind of experiment: Alamar Blue cell viability assay, DU145. Particulars: Homo sapiens, DU-145, 48 h, read-out: DU145 IC50.
Data set [3] has as its system primary human dental bulb cells (ND). As to the kind of experiment: Alamar Blue cell viability, normal primary dental cells. Particulars: 48 hours, Mean ± SEM.
The subject of data set [4] is DU145. As to the kind of experiment: Cell cycle analysis (PI flow cytometry), DU145. It counts as cell-based, human. Particulars: DU145, 48 hours; not statistically significant (P>0.05). Here is the method:
Cells were seeded in 100 mm Petri dishes at a density of 1.5 million cells/dish and incubated in RPMI supplemented with 10% FBS overnight at 37° C. Complete culture media was then removed, and cells were starved in serum serum-free for 16 hours to synchronize cells at the G0/G1 phase of the cell cycle. Subsequently, cells were treated with the compounds 13, 15, and 16 or docetaxel for 48 hours. After treatment, floating and adherent cells were collected, washed with ice-cold PBS and centrifuged at 500 g for 10 minutes at 4° C. Next, cells were fixed with ice-cold 70% ethanol added drop wisely while vertexing and stored at −20° C. for at least 24 hours. On the day of analysis, cells were pelleted (centrifuged at 800 g for 10 minutes at 4° C.), washed twice with ice-cold PBS and counted. Around one million cells of each sample were resuspended in 500 μl of FxCycle PI/RNase Staining Solution® (Thermo Fisher Scientific, USA) supplemented with 200 μg/ml RNase and incubated for 50 minutes at 37° C. in a shaking water bath, protected from light. Following incubation, cells were immediately analyzed by BD FACSAria™ II Flow Cytometer, at least 50,000 events were acquired for each sample. The proportion of cells in each cell cycle phase: […]

Data set [5] has as its system PC3 and DU145. As to the kind of experiment: Soft agar colony formation assay, PC3 and DU145 (stated for both). Particulars: 5 and 10 μM, 14 days, both cell lines. It counts as cell-based, human. As for the experimental part: Anchorage-independent growth, a characteristic of transformed cells that correlate with in vivo tumorigenic potential, was assessed by soft agar assay. First, a 2% noble agar (Sigma-Aldrich) stock solution was prepared in deionized and autoclaved water. […] After 14 days, the average number of colonies in each well was counted manually under the microscope and confirmed by ImageJ; only colonies with an area larger than […] were counted to avoid the inclusion of non-proliferating dead cells. Besides, the size of colonies in each treatment condition was measured by ImageJ from at least six random fields per well.

Another data set deals with PC3. As to the kind of experiment: Alamar Blue cell viability assay, PC3. The following applies: for IC50: read-out: PC3 IC50, 48 hours, Mean ± SEM of three independent experiments.
For data set [6], the system named is PC3 and DU145. As to the kind of experiment: Wound healing assay, PC3 and DU145. The following applies: both cell lines; significant from 5 μM in PC3.
In another data set the test system is JNK1/2/3, ERK1/2, Akt. As to the kind of experiment: Western blot of JNK, ERK and AKT-related biomarkers in PC3. The following applies: PC3 cell line.
Data set [7] concerns MDA-MB-231 and MDA-MB-436. As to the kind of experiment: Soft agar colony formation assay, TNBC cell lines. The data set is classed as cell-based, human. The following applies: 28 days.
The next data set concerns MDA-231 and MDA-436. As to the kind of experiment: Morphological examination, TNBC cell lines. The following applies: 24 and 48 hours post treatment. The data set is classed as cell-based, human. As for the experimental part:
Cells were seeded in 6 wells plate at a density of 150,000-200,000 cells/well and were incubated overnight. Then, cells were treated with the synthesized compounds at 5-10 μM concentration for 48 hours. Morphological changes were monitored using a DMi8 inverted microscope (Leica, Germany) and images were captured with a Leica MC170 HD camera.

Data set [8] has as its system MDA-MB-231. As to the kind of experiment: Alamar Blue cell viability assay, MDA-MB-231. It counts as cell-based. The following applies: Homo sapiens, Mean ± SEM, read-out: IC50 against MDA-MB-231. An excerpt: (§1) Besides, the effect of these analogs was compared to docetaxel, a first-line chemotherapy, as a positive control.
In data set [9] the test system is MCF 10A. As to the kind of experiment: Alamar Blue cell viability, normal breast epithelial cell line.
The test system of the next data set is MDA-MB-436. As to the kind of experiment: Alamar Blue cell viability assay, MDA-MB-436. It counts as cell-based. The following applies: Homo sapiens, Mean ± SEM, read-out: IC50 against MDA-MB-436.
Excerpt: as §1

Data set [10] concerns MDA-MB-231. As to the kind of experiment: Wound healing assay, MDA-MB-231. It counts as cell-based, human.
Data set [11] deals with MDA-MB-231 and MDA-MB-436. As to the kind of experiment: Alamar Blue cell viability, TNBC cell lines (stated for both). It counts as cell-based. The following applies: Homo sapiens.
Excerpt: as §1

Data set [12] concerns MCF 10A. Particulars: selectivity index.
Data set [13] has as its system PC3 and DU145. As to the kind of experiment: Cell cycle analysis (PI flow cytometry), PC3 and DU145. It counts as cell-based, human. Particulars: 48 hours. Here is the method: The compounds' effect on cell cycle distribution of PC3 and DU145 was assessed by flow cytometry using propidium iodide (PI). Cells were seeded in 100 mm Petri dishes at a density of 1.5 million cells/dish and incubated in RPMI supplemented with 10% FBS overnight at 37° C. Complete culture media was then removed, and cells were starved in serum serum-free for 16 hours to synchronize cells at the G0/G1 phase of the cell cycle. Subsequently, cells were treated with the compounds 13, 15, and 16 or docetaxel for 48 hours. After treatment, floating and adherent cells were collected, washed with ice-cold PBS and centrifuged at 500 g for 10 minutes at 4° C. Next, cells were fixed with ice-cold 70% ethanol added drop wisely while vertexing and stored at −20° C. for at least 24 hours. On the day of analysis, cells were pelleted (centrifuged at 800 g for 10 minutes at 4° C.), washed twice with ice-cold PBS and counted. […] Following incubation, cells were immediately analyzed by BD FACSAria™ II Flow Cytometer, at least 50,000 events were acquired for each sample. The proportion of cells in each cell cycle phase: G1, S and G2-M was determined using FlowJo software based on cells' DNA content as represented by histograms of PI signal intensity.

The mark [14] stands for this setting: range over both TNBC cell lines, read-out: IC50 against MDA-MB-231 and MDA-MB-436 cell lines.

SMILES strings stand for the structures. Where two headings read alike, the source gives them in different places.

For `COc1cc2c(cc1OC)C(=O)/C(=C/c1ccc(-c3ccsc3)nc1)CC2` [Compound 13, (E)-6,7-dimethoxy-2-((6-(thiophen-3-yl)pyridin-3-yl)methylene)-3,4-dihydronaphthalen-1 (2H)-one], the “effect on cell morphology” value with C4-2 and LNCaP is “lose their shape, shrink in size, and increased cell death”. Also, the Bax/Bcl-2 expression result with Bax, Bcl-2 is listed as “significant increase in Bax/Bcl-2 ratio”. Further, the IC50 with PC3 and DU145 [1] is 4.32 to 6.47 µM; in the data set with DU145 [2] it was 5.63 ± 1.07 µM; with PC3, 5.6 ± 0.38 µM. For the same compound, the “ND LD50” value in [3] was over 50.0 µM. For the same compound, the “effect on cell cycle distribution” value in the data set on DU145 [4] was “slight accumulation in G2/M and sub G1 phases”. In the data set on PC3 and DU145 [5], the “colony formation in soft agar (number and size)” value (“colony formation in soft agar” below) is “significant reduction in both the total number of colonies and average colony size”. Also, the wound closure result with PC3 and DU145 [6] was “dose-dependent reduction in wound closure”.
For `COc1ccc2c(c1)C(=O)/C(=C/c1cccc(-c3ccsc3)n1)CC2` [Compound 15, (E)-7-methoxy-2-((6-(thiophen-3-yl)pyridin-2-yl)methylene)-3,4-dihydronaphthalen-1 (2H)-one], the Bax/Bcl-2 expression entry in the data set with Bax, Bcl-2 is given as “significant increase in Bax/Bcl-2 ratio”. Moreover, the IC50 with PC3 and DU145 [1] was 4.32 to 6.47 µM; in the data set with DU145 [2], 6.47 ± 0.57 µM; with PC3, 6.6 ± 0.49 µM. Also, the “expression of JNK1/2/3, ERK1/2, Akt and phosphorylated forms” value in the data set with JNK1/2/3, ERK1/2, Akt is “reduced the expression of JNK1/2/3, p-ERK1/2, Akt and p-Akt”. For the same compound, the “ND LD50” value in data set [3] was over 50.0 µM. Besides, the “effect on cell cycle distribution” value with DU145 [4] was “slight accumulation in G2/M and sub G1 phases”. The wound closure result in the data set on PC3 and DU145 [6] is listed as “dose-dependent reduction in wound closure”.
As to `COc1ccccc1C(=O)/C=C/c1cccc(-c2ccsc2)n1` [Compound 17, (E)-1-(2-methoxyphenyl)-3-(6-(thiophen-3-yl)pyridin-2-yl) prop-2-en-1-one], the “colony formation in soft agar” value in data set [7] is “significant reduction in both the total number of colonies and average colony size”. In addition, the “effect on cell morphology” value in the data set with MDA-231 and MDA-436 was “lose their shape, shrink in size, form apoptotic bodies, and increased cell death”. In addition, the IC50 with MDA-MB-231 [8] (24 hrs. post treatment) was 3.6 ± 0.5 µM; in the data set on MDA-MB-231 [8] (48 hrs. post treatment) it was 3.2 µM; in the data set on MDA-MB-436 (24 hrs. post treatment), 3.2 ± 0.2 µM; with MDA-MB-436 (48 hrs. post treatment), 1.6 µM; in [11] (setting [14]), 0.87 to 3.2 µM. Also, the “selectivity versus normal cells (MCF10a)” value in the data set on MCF 10A [9] is “greater selectivity towards cancerous cell lines”. Besides, in the data set on MDA-MB-231 [10], the “cell migration of MDA-MB-231 (wound healing)” value was “significantly reduced cell migration”. In addition, the “reduction in cell viability of PC3” value in the data set with PC3 (2.5 μM) stood at 84.7%.
As to `CS(=O)(=O)c1ccc(C(=O)/C=C/c2cccc(-c3ccsc3)n2)cc1` [Compound 23, (E)-1-(4-(methylsulfonyl)phenyl)-3-(6-(thiophen-3-yl)pyridin-2-yl) prop-2-en-1-one], the “colony formation in soft agar” value in data set [7] is “significant reduction in both the total number of colonies and average colony size”.
For the compound `O=C(/C=C/c1cccc(-c2ccsc2)n1)c1ccccc1C(F)(F)F` [Compound 25, (E)-3-(6-(thiophen-3-yl)pyridin-2-yl)-1-(2-(trifluoromethyl)phenyl) prop-2-en-1-one], the “effect on cell morphology” value in the data set on MDA-231 and MDA-436 was “lose their shape, shrink in size, form apoptotic bodies, and increased cell death”. The IC50 is 3.5 ± 1.47 µM in the data set on MDA-MB-231 [8] (24 hrs. post treatment); 2.1 µM in the data set on MDA-MB-231 [8] (48 hrs. post treatment); 2.4 ± 0.2 µM in the data set with MDA-MB-436 (24 hrs. post treatment); 0.87 µM in the data set with MDA-MB-436 (48 hrs. post treatment); 0.87 to 3.2 µM in data set [11] (setting [14]); 0.87 to 2.1 µM in data set [11] (range, unit inferred, read-out: IC50 (TNBC cell lines)). The “SI of MCF 10A/MDA-MB231” value with MCF 10A [12] is 1.8. The “SI of MCF 10A/MDA-MB436” value with MCF 10A [12] is 3.9. For the same compound, the “selectivity versus normal cells (MCF10a)” value with MCF 10A [9] (MDA-231 and MDA-436 vs MCF10a) is “greater selectivity towards cancerous cell lines”. In the data set on MCF 10A [9] (after 48 hrs.), the “Effect on non-tumorigenic epithelial cell line MCF 10A” value is 3.44 ± 0.4 µM. The “cell migration of MDA-MB-231 (wound healing)” value in the data set on MDA-MB-231 [10] (dose-dependent) is reported as “significantly reduced cell migration”.
For the compound `CC(=O)O[C@@]12CO[C@@H]1C[C@H](O)[C@@]1(C)C(=O)[C@H](O)C3=C(C)[C@@H](OC(=O)[C@H](O)[C@@H](NC(=O)OC(C)(C)C)c4ccccc4)C[C@@](O)([C@@H](OC(=O)c4ccccc4)[C@H]21)C3(C)C` [docetaxel, reference compound], the “increase of G2/M phase as compared to control” value with PC3 and DU145 [13] is reported as 1.9-2.6 folds. For the same compound, the IC50 was determined as 11 ± 1.7 µM with MDA-MB-231 [8] (24 hrs. post treatment), 6.43 ± 0.6 µM in the data set with MDA-MB-231 [8] (48 hrs. post treatment), 11.9 ± 2.7 µM in the data set with MDA-MB-436 (24 hrs. post treatment) and 9.8 ± 2 µM in the data set on MDA-MB-436 (48 hrs. post treatment).

These data come from patent US20250170111A1, “PYRIDINE BASED CHALCONE ANALOGS AS THERAPEUTIC AGENTS AND USE THEREOF” (QATAR UNIVERSITY, priority 2023, published 2025).
